# Experiments:
# K562 = K562 assay, in vitro cytotoxicity of PBD payloads (MTS, 4 days); format: cell-based; details: Homo sapiens, K562, 96 h; 4 days incubation, mean of three independent replicates
# Description: The potency of each of the PBD molecules were measured via in vitro cytotox assays in the carcinoma cell line K562.
# (§1) Solid PBD material was dissolved in DMSO to a 2 mM stock solution, from which eight serial dilutions were made at a 1:10 ratio in DMSO and stored at −20° C. until use.
# Adherent K562 cells were washed with D-PBS and detached with Trypsin-EDTA, cell density and viability were then determined in duplicate by Trypan blue exclusion assay using an automated cell counter (LUNA-II™). Cell suspension was diluted to 1×10^5 cells/ml in growth media (RPMI 1640 with Glutamax+10% (v/v) HyClone™ Fetal Bovine Serum) and vortexed before dispensing 2 mL per well into sterile 3 mL polypropylene plates. […] At the end of the incubation period time (4 days), cell viability was measured by CellTiter 96® Aqueous One (MTS) assay, which was dispensed at 20 μl/well and incubated for 4 hours at 37° C., 5% CO2. Plates were then read on an EnVision® Multi-label Plate Reader (Perkin Elmer) using absorbance at 490 nm.
# Cell survival percentage was calculated from the mean absorbance of the 2 replicate wells for each sample, compared to the mean absorbance in the two control wells treated with DMSO only (100%). The IC50 was determined by fitting each data set to sigmoidal dose-response curves with a variable slope using the non-linear curve fit algorithm on the GraphPad Prism software (San Diego, Calif.). […]
# NCI-N87 = NCI-N87 assay, in vitro cytotoxicity of PBD payloads (MTS, 7 days); format: cell-based; details: Homo sapiens, NCI-N87, 168 h; 7 days incubation, mean of three independent replicates
# Description: The potency of each of the PBD molecules were measured via in vitro cytotoxicity assays in the carcinoma cell line NCI-N87.
# as §1
# Adherent NCI-N87 cells were washed with D-PBS and detached with Trypsin-EDTA, cell density and viability were then determined in duplicate by Trypan blue exclusion assay using an automated cell counter (LUNA-II™). Cell suspension was diluted to 1×10^5 cells/ml in growth media (RPMI 1640 with Glutamax+10% (v/v) HyClone™ Fetal Bovine Serum) and vortexed before dispensing 2 mL per well into sterile 3 mL polypropylene plates. Warhead dilutions were then dispensed into the appropriate wells at 10 μl/well and mixed by repeat pipetting. For control wells 10 μl of DMSO was dispensed onto 2 mL cell suspension, and thoroughly mixed. 100 μl of each sample was then aliquoted into 2 replicate wells of a sterile flat 96-well microplate and incubated in a 37° C. CO2-gassed (5%) incubator. At the end of the incubation period time (7 days), cell viability was measured by CellTiter 96® Aqueous One (MTS) assay, which was dispensed at 20 μl/well and incubated for 4 hours at 37° C., 5% CO2.
# Plates were then read on an EnVision® Multi-label Plate Reader (Perkin Elmer) using absorbance at 490 nm.
# Cell survival percentage was calculated from the mean absorbance of the 2 replicate wells for each sample, compared to the mean absorbance in the two control wells treated with DMSO only (100%). The IC50 was determined by fitting each data set to sigmoidal dose-response curves with a variable slope using the non-linear curve fit algorithm on the GraphPad Prism software (San Diego, Calif.).
# All the experiments in this report were carried out and tested in three independent experiments. Data are reported as the mean of the three independent replicates.
SMILES,IC50 (K562),IC50 (NCI-N87)
"COC(=O)c1cc(COc2cc3c(cc2OC)C(=O)N2C=C(C)C[C@H]2C=N3)cc(COc2cc3c(cc2OC)C(=O)N2C=C(C)C[C@H]2C=N3)c1 [Compound 47, Methyl 3,5-bis((((S)-7-methoxy-2-methyl-5-oxo-5,11a-dihydro-1H-benzo[e]pyrrolo[1,2-a][1,4]diazepin-8-yl)oxy)methyl)benzoate]",0.162 nM,
"COc1cc2c(cc1OCc1cc(COc3cc4c(cc3OC)C(=O)N3C=C(C)C[C@H]3C=N4)cc(C(=O)O)c1)N=C[C@@H]1CC(C)=CN1C2=O [Compound 49, 3,5-bis((((S)-7-methoxy-2-methyl-5-oxo-5,11a-dihydro-1H-benzo[e]pyrrolo[1,2-a][1,4]diazepin-8-yl)oxy)methyl)benzoic acid]",1.84 nM,
"C=C1C[C@H]2C=Nc3cc(OCc4cc(COc5cc6c(cc5OC)C(=O)N5CC(=C)C[C@H]5C=N6)cc(C(=O)OC)c4)c(OC)cc3C(=O)N2C1 [Compound 51, Methyl 3,5-bis((((S)-7-methoxy-2-methylene-5-oxo-2,3,5,11a-tetrahydro-1H-benzo[e]pyrrolo[1,2-a][1,4]diazepin-8-yl)oxy)methyl)benzoate]",,0.0685 nM
"C=C1C[C@H]2C=Nc3cc(OCc4cc(COc5cc6c(cc5OC)C(=O)N5CC(=C)C[C@H]5C=N6)cc(C(=O)O)c4)c(OC)cc3C(=O)N2C1 [Compound 53, 3,5-bis((((S)-7-Methoxy-2-methylene-5-oxo-2,3,5,11a-tetrahydro-1H-benzo[e]pyrrolo[1,2-a][1,4]diazepin-8-yl)oxy)methyl)benzoic acid]",,4.31 nM
"C=C1C[C@H]2C=Nc3cc(OCc4cc(C(=O)OC)cc(COc5cc6c(cc5OC)C(=O)N5CC(=C)C[C@H]5C=N6)n4)c(OC)cc3C(=O)N2C1 [Compound 55, Methyl 2,6-bis((((S)-7-methoxy-2-methylene-5-oxo-2,3,5,11a-tetrahydro-1H-benzo[e]pyrrolo[1,2-a][1,4]diazepin-8-yl)oxy)methyl)isonicotinate]",,0.0168 nM
"C=C1C[C@H]2C=Nc3cc(OCc4cc(C(=O)O)cc(COc5cc6c(cc5OC)C(=O)N5CC(=C)C[C@H]5C=N6)n4)c(OC)cc3C(=O)N2C1 [Compound 56, 2,6-Bis((((S)-7-methoxy-2-methylene-5-oxo-2,3,5,11a-tetrahydro-1H-benzo[e]pyrrolo[1,2-a][1,4]diazepin-8-yl)oxy)methyl)isonicotinic acid]",,20.7 nM
"C=C1C[C@H]2C=Nc3cc(OCc4cccc(COc5cc6c(cc5OC)C(=O)N5CC(=C)C[C@H]5C=N6)c4)c(OC)cc3C(=O)N2C1 [Compound 58, (11aS,11a′S)-8,8′-((1,3-phenylenebis(methylene))bis(oxy))bis(7-methoxy-2-methylene-1,2,3,11a-tetrahydro-5H-benzo[e]pyrrolo[1,2-a][1,4]diazepin-5-one), reference compound]",,0.0172 nM

# From patent publication US11524969B2, “Pyrrolobenzodiazepines and conjugates thereof as antitumour agents” (MEDIMMUNE LIMITED, priority 2018, dated 2022)
